Measurements as given in US20200172483A1, “HETEROCYCLIC SMALL MOLECULE MODULATORS OF HUMAN STING” (Curadev Pharma Limited, priority 2017, published 2020).
Like-named read-outs stand apart in the source and are kept apart here.

What was measured:
WT/R232 STING protein = biological target: T1, WT/R232 STING protein (Homo sapiens, UniProt Q86WV6, H232R); experiment: Luciferase reporter assay in HEK293T-hSTING-Luciferase cells (R232); format: cell-based; settings: 20 hr stimulation, EC50 range
T1 construct: host or cells: HEK293T
T1 sequence (Q86WV6 whole entry H232R): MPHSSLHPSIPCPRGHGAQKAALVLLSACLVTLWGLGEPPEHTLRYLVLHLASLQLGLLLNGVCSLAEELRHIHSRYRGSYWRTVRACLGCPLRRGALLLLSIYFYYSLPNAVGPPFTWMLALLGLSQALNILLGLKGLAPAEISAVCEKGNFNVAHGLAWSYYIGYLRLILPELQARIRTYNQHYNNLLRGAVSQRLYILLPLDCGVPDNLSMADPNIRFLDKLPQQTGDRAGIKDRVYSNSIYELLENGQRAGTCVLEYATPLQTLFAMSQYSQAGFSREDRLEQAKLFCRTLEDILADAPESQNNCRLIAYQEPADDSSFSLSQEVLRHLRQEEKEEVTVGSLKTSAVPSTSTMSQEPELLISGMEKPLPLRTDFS
In short: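 Readout is fold-induction over baseline of secreted luciferase, measured by luminescence after 20 hr compound stimulation. Cells: clonally selected HEK293T stably carrying hSTING (R232) and a luciferase reporter under five tandem ISREs fused to an ISG54 minimal promoter.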

hSTING (H232) = biological target: T2, hSTING (H232) (Homo sapiens, UniProt Q86WV6); experiment: Luciferase reporter assay in HEK293T-hSTING-Luciferase cells (H232/REF polymorph); format: cell-based; settings: EC50 range
T2 construct: host or cells: HEK293T
T2 sequence (Q86WV6 whole entry): as the sequence (Q86WV6 whole entry H232R) above, with R232H counted along it
Source text: (§1) • a) Stable STING expressing cells—Stable HEK293T STING-expressing cell lines were generated using plasmids purchased from Invivogen, CA, USA, that contain STING cDNA cloned into the pUNO-1 vector under hEF1-HTLV promoter and containing the Blasticidin selection cassette. The plasmids hSTING (R232), hSTING (H232), hSTING (HAQ) were directly procured from Invivogen while hSTING (AQ) and hSTING (Q) were derived from hSTING (HAQ) and hSTING (R232) plasmids respectively by using a PCR based site directed mutagenesis method. These vectors were individually transfected into HEK293T cells using Lipofectamine (Invitrogen) and transfected cells were selected under Blasticidin selection. These transfected cells were further subjected to clonal selection using the limiting dilution method to obtain clonally pure populations of HEK cells transfected with each of the above mentioned human STING variants. Only those clones were selected in which ligand independent activation of STING was minimal. • b) Stable Luciferase reporter gene expressing cells—Stable HEK293T Luciferase reporter gene expressing cell lines were generated using pCDNA4 plasmids under an IRF-inducible promoter. This promoter is comprised of five tandem interferon-stimulated response elements (ISRE) fused to an ISG54 minimal promoter. This vector was transfected into HEK293T cells using Lipofectamine (Invitrogen) and transfected cells were selected under Zeocin selection. These transfected cells were further subjected to clonal selection using the limiting dilution method to obtain clonally pure populations of HEK cells transfected the Luciferase reporter construct. Only those clones were selected in which ligand independent induction of luciferase was minimal.
(§2) 5×10^5 clonally selected HEK293T-hSTING-Luciferase cells were seeded in 384-well plates in growth medium and stimulated with novel compounds. After 20 hr of stimulation supernatant were removed and secretary reporter gene activity were measured using the Quanti-Luc detection system (Invivogen) on a Spectramax i3X luminometer.
(§3) The 5 major polymorphisms of human STING are shown in FIG. 1, with their prevalence in human populations indicated.

hSTING (HAQ) = biological target: T3, hSTING (HAQ) (Homo sapiens, UniProt Q86WV6, G230A/H232R/R293Q/R71H); experiment: Luciferase reporter assay in HEK293T-hSTING-Luciferase cells (HAQ polymorph); format: cell-based; settings: EC50 range
T3 construct: host or cells: HEK293T
T3 sequence (Q86WV6 whole entry R71H/G230A/H232R/R293Q): as the sequence (Q86WV6 whole entry H232R) above, with R71H, G230A, R293Q counted along it
Source text: as §1, §2, §3

IRF pathway = experiment: Reporter gene expression assay for IRF axis in THP1-Dual cells (secreted Lucia luciferase); format: cell-based, human; settings: 20 hr stimulation, QUANTI-Luc, EC50 range, read-out: THP-IRF activity
In short: (§4)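 THP1-Dual cells (THP-1 monocytes with inducible NF-κB-SEAP and IRF-Lucia reporters; 5×10^5 cells) were stimulated with compounds for 20 hr. Secreted SEAP (QUANTI-Blue) and Lucia luciferase (QUANTI-Luc) were then measured in the supernatant. EC50 values are reported as ranges.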

NF-κB pathway = experiment: Reporter gene expression assay for NFκB axis in THP1-Dual cells (secreted SEAP); format: cell-based, human; settings: 20 hr stimulation, QUANTI-Blue SEAP, EC50 range, read-out: THP-NFKB activity
In short: as §4

Compound | EC50 (WT/R232 STING protein) | EC50 (hSTING (H232)) | EC50 (hSTING (HAQ)) | EC50 (IRF pathway; Homo sapiens, THP1-Dual, 20 h) | EC50 (NF-κB pathway; Homo sapiens, THP1-Dual, 20 h) | EC50 (IRF pathway) | EC50 (NF-κB pathway)
CC1(C)C(=O)N(Cc2cccc(C(N)=O)c2)c2cc(C(=O)NCc3c(F)cc(F)cc3F)ccc21 [Example 37, 1-(3-carbamoylbenzyl)-3,3-dimethyl-2-oxo-N-(2,4,6-trifluorobenzyl)indoline-6-carboxamide] | 1 to 10 µM | 1 to 10 µM | > 10 µM | > 10 µM | > 10 µM | – | –
CC1(C)C(=O)N(Cc2ccc(F)cc2)c2cc(C(=O)NCc3c(F)cc(F)cc3F)ccc21 [Example 20, 1-(4-fluorobenzyl)-3,3-dimethyl-2-oxo-N-(2,4,6-trifluorobenzyl)indoline-6-carboxamide] | ≤ 1 µM | 1 to 10 µM | ≤ 1 µM | 1 to 10 µM | 1 to 10 µM | – | –
Cc1ccc(CNC(=O)c2ccc3c(c2)N(Cc2cccc(F)c2F)C(=O)C3(C)C)o1 [Example 61, 1-(2,3-difluorobenzyl)-3,3-dimethyl-N-((5-methylfuran-2-yl)methyl)-2-oxoindoline-6-carboxamide] | 1 to 10 µM | 1 to 10 µM | 1 to 10 µM | > 10 µM | > 10 µM | – | –
Cc1ccc(CNC(=O)c2ccc3c(c2)N(Cc2ccc(F)cc2)C(=O)C3(C)C)o1 [Example 60, 1-(4-fluorobenzyl)-3,3-dimethyl-N-((5-methylfuran-2-yl)methyl)-2-oxoindoline-6-carboxamide] | 1 to 10 µM | > 10 µM | 1 to 10 µM | > 10 µM | > 10 µM | – | –
CC1(C)C(=O)N(Cc2cc(F)cc(F)c2)c2nc(C(=O)NCc3cc4ccccc4o3)ccc21 [Example 182, N-(benzofuran-2-ylmethyl)-1-(3,5-difluorobenzyl)-3,3-dimethyl-2-oxo-2,3-dihydro-1H-pyrrolo[2,3-b]pyridine-6-carboxamide] | 1 to 10 µM | 1 to 10 µM | 1 to 10 µM | > 10 µM | > 10 µM | – | –
CC1(C)C(=O)N(Cc2c(F)cccc2Cl)c2cc(C(=O)NCc3nc4ccccc4o3)ccc21 [Example 30, N-(benzo[d]oxazol-2-ylmethyl)-1-(2-chloro-6-fluorobenzyl)-3,3-dimethyl-2-oxoindoline-6-carboxamide] | 1 to 10 µM | 1 to 10 µM | 1 to 10 µM | > 10 µM | 1 to 10 µM | – | –
CC1(C)CN(C(=O)Cc2ccccc2)c2cc(C(=O)NCc3c(F)cc(F)cc3F)ccc21 [Example 136, 3,3-dimethyl-1-(2-phenylacetyl)-N-(2,4,6-trifluorobenzyl)indoline-6-carboxamide] | 1 to 10 µM | > 10 µM | 1 to 10 µM | > 10 µM | > 10 µM | – | –
COCCn1nc(C)c(F)c1CN1C(=O)C(C)(C)c2ccc(C(=O)NCc3cc4cc(F)ccc4o3)cc21 [Example 118, 1-((4-fluoro-1-(2-methoxyethyl)-3-methyl-1H-pyrazol-5-yl)methyl)-N-((5-fluorobenzofuran-2-yl)methyl)-3,3-dimethyl-2-oxoindoline-6-carboxamide] | ≤ 1 µM | 1 to 10 µM | 1 to 10 µM | > 10 µM | > 10 µM | – | –
CC1(Cl)C(=O)N(Cc2cc(F)cc(F)c2)c2cc(C(=O)NCc3c(F)cc(F)cc3F)ccc21 (centres unmarked) [Example 147, 3-chloro-1-(3,5-difluorobenzyl)-3-methyl-2-oxo-N-(2,4,6-trifluorobenzyl)indoline-6-carboxamide] | ≤ 1 µM | > 10 µM | > 10 µM | – | – | > 10 µM | > 10 µM
Cc1ccc(CNC(=O)c2ccc3c(n2)N(Cc2cc(F)cc(F)c2)C(=O)C3(C)C)o1 [Example 188, 1-(3,5-difluorobenzyl)-3,3-dimethyl-N-((5-methylfuran-2-yl)methyl)-2-oxo-2,3-dihydro-1H-pyrrolo[2,3-b]pyridine-6-carboxamide] | 1 to 10 µM | 1 to 10 µM | 1 to 10 µM | > 10 µM | > 10 µM | – | –
